Experimental findings from patent publication US9593144B2, “FPR1 antagonist derivatives and use thereof” (CHANG GUNG UNIVERSITY, priority 2014, dated 2017) are described below.

Like-named read-outs stand apart in the source and are kept apart here. Square brackets hold non-standard residues; d marks the D form. Peptide text beside a SMILES is read from it. * marks the point of attachment. Bz = O=C(c1ccccc1)*

One data set concerns human neutrophils. The data set is described as follows: cells. The note with it: Neutrophil, mean ± SEM. It is filed as cell-based. The method, then:
Degranulation of azurophilic granules was determined by elastase release as described above. Experiments were performed using MeO-Suc-[…]-nitroanilide as the elastase substrate. […] Results are expressed as the percentage of elastase release in the drug-free control group, DMSO. Tables 5 and 6 explore whether there is an anti-inflamatory effect in the dipeptide derivatives. Because ferricytochrome c cannot penetrate cell membranes, it reacts with superoxide anion extracellularly. Also, there are absorptive reactions at 550 nm, and differences among the absorptive reactions can be used to evaluate the influence on the release of superoxide anion. The elastase is released by degranulation as the neutrophil is activated. Tables 5 and 6 use the substrate, MeO-Suc-[…]-nitroanilide, with the specificity for reacting with the elastase so as to evaluate the influence of the candidate compound on the elastase release. Blood was taken from healthy human donors (20-32 years old) by venipuncture, following a protocol approved by the Institutional Review Board at Chang Gung Memorial Hospital. Neutrophils were isolated by a standard method of dextran sedimentation prior to centrifugation in a Ficoll Hypaque gradient and the hypotonic lysis of erythrocytes. […] The degranulation of azurophilic granules was determined by elastase release as described above. Experiments were performed using MeO-Suc-[…]-nitroanilide as the elastase substrate. Briefly, after supplementation with MeO-Suc-[…]-nitroanilide ([…] neutrophils (6×10^5 ml^-1) were equilibrated at 37° C. for 2 min and incubated with drugs for 5 min. […] The results are expressed as the percentage of elastase release in the drug-free control group.

Take `COC(=O)[C@@H](Cc1ccccc1)NC(=O)[C@H](Cc1c[nH]c2ccccc12)NC(=O)c1ccccc1` [Compound 3, N—(N-Benzoyl-L-tryptophanyl)-D-phenylalanine methyl ester] (Bz-Trp-[dF]-OMe): the melting point (commonly the temperature of the solid-liquid transition) fell in the range of 174 to 176 °C. Also, the IC50 in the data set with human neutrophils (WKYMVm, n = 4 or 8, Table 6, read-out: Elastase release WKYMVm IC50) was determined as 5220 ± 700 nM. In addition, the IC50 in the data set on human neutrophils (WKYMVm/CB, n = 3, Table 4, read-out: WKYMVm/CB NE release (IC50)) came out at 4610 ± 720 nM. In addition, the IC50 in the data set with human neutrophils (fMLF, n = 4 or 8, Table 6, read-out: Elastase release fMLF IC50) came to 570 ± 70 nM. Moreover, in the data set with human neutrophils (fMLF/CB, n = 3, Table 4, read-out: fMLF/CB NE release (IC50)), the IC50 worked out at 600 ± 70 nM. Moreover, the IC50 in the data set with human neutrophils (fMLP/CB, n = 3, Table 1, read-out: Anti-inflammation NE release (IC50)) was found to be 600 ± 70 nM.
